Experimental data taken from patent publication US20230036041A1, “SORTILIN BINDING CONJUGATE COMPOUNDS, COMPOSITIONS AND USES THEREOF FOR TREATING CANCER” (THERATECHNOLOGIES INC., priority 2019, published 2023).
Entries after “also recorded” stand apart in the source; their conditions may differ. Like-named read-outs stand apart in the source and are kept apart here. Non-standard residues stand in square brackets, D forms with d. Residues, ends and D or L forms follow the SMILES beside them. *: point of attachment. X1 = CC(=O)O[C@@]12CO[C@@H]1C[C@H](O)[C@@]1(C)C(=O)[C@H](O)C3=C(C)[C@@H](OC(=O)[C@H](OC(=O)CCC(=O)*)[C@@H](NC(=O)OC(C)(C)C)c4ccccc4)C[C@@](O)([C@@H](OC(=O)c4ccccc4)[C@H]21)C3(C)C; Nle = CCCC[C@H](N)C(=O)O

Key:
[1] = system: MDA-MB-231 breast cancer cells; assay: cells; type: cell-based, human; settings: read-out: IC50 value, anti-proliferative activity
Description: In vitro testing of the TH19P01 peptide and the TH1902 conjugate compound was conducted.

[2] = assessment of neutropenia in treated mice; type: in vivo; settings: athymic mice; for neutrophil counts: docetaxel 15 mg/kg/week or TH1902 at equivalent dose, up to 6 treatments, FIG. 11
Description: 15 young adult, female, homozygous athymic mice (Crl:CD1-Foxn1^nu, 4-6 weeks of age) received 6 consecutive treatments of docetaxel or TH1902 (at equivalent dose of docetaxel (15 mg/kg/week)). […] This level continued to decrease as the administration of docetaxel continued.

[3] = system: MDA-MB-231/Luc (triple-negative breast cancer) xenografts; assay: tumor growth inhibition, MDA-MB-231/Luc xenografts in nude mice, TH1902 formulations (Examples 3A, 3B); type: in vivo
Description: TH1902 and docetaxel (supplied by Wonda Science Inc.) were used. […] Both treatments were administered intravenously, on a per week basis over 6 weeks.
8 different formulations comprising TH1902 were tested.
These are derived from a triple-negative breast cancer (TNBC) and they stably express firefly luciferase. […] Cell counts and cell viability were assessed with a BioRad TC20™ automated cell counter.
60 young adult, female, homozygous nude mice (Crl:CD1-Foxn1^nu), obtained from Charles River Canada Inc. (St-Constant, Quebec) were used in this study. Healthy mice were selected based on normal veterinary examination.
Tumor growth was monitored, and mice were randomly assigned to groups the vehicle group, docetaxel group or one of the 8 TH1902 formulations group (6 mice per group) for further treatment when tumor volumes reached 40-140 mm^3 or after 2-3 days of significant increase. Experimental procedures
Mice were first anesthetized with isoflurane and oxygen. Two-dimensional measurements were taken with electronic calipers during the study and tumor volume was calculated using the following formula: tumor volume (mm^3)=0.52*a*b^2, where 0.52 is a constant to calculate the volume of an ellipsoid (π/6), where “a” is the longest diameter and “b” is the shortest diameter[3]. […]
All mice were observed daily for changes in appearance and behavior, and events recorded when appropriate. […]

[4] = system: PANC-1 subcutaneous tumor xenografts; assay: pancreatic cancer xenograft model (PANC-1); type: in vivo, mice; settings: vs vehicle
Description: Briefly, stock solution of formulated TH1902 was prepared as sterile aliquots of 10 mg/mL frozen liquid solutions (see below). On the day of animal dosing, frozen aliquots were thawed 30 minutes at room temperature then diluted with sterile 5% dextrose injection, USP (D5W) to the desired concentration for injection (i.e. typically 5.4 or 1.35 mg/mL).
TH1902 frozen stock solution were prepared as follow: • 1. Make the TH1902 diluent solution (Diluent) the day before the solubilization. Diluent: 10% Tween™ 80 in D5W USP (w/v) with 0.04% of formic acid (v/v), ˜pH 2.9. Leave solution at room temperature until TH1902 solubilization (next day). • 2. Weigh 60 mg of TH1902 API into a 14 ml glass vial with screw caps. Adjust TH1902 weights to reflect TH1902 purity according to the certificate of analysis. • 3. Add 90% of diluent solution needed to prepare the TH1902 10 mg/ml stock solution. • 4. Swirl the content of the bottle to form opaque mixture and place a stir bar. • 5. Place bottle in the heating apparatus (glass water bath and mount for holding vial with thermometer and stir bar on a digital heating plate). Begin mixing the content of the bottle. • 6. […] Transfer the formulation to a graduated glass cylinder and bring to final calculated volume with diluent solution. • 9. […] Perform UPLC analysis against a TH1902 standard curve for quantification and purity assessment. • 11. […]

[5] = in vitro stability in mouse plasma; type: in vitro ADME; settings: 37° C.
Description: Additional testing was conducted to study the stability of formulated TH1902 in mouse plasma. TH1902 was either solubilized in […] or formulated with solubilizing agents (Formulation: DMSO/Solutol™ HS15/Tween™-80/EtOH/Sol. Ac. Ac./D5W/water in the following V/V proportion 5/6/2.5/0.75/0.005/69/16.75). TH1902 was incubated in mouse plasma at 37° C. for the indicated times. Plasma proteins were precipitated by the addition of 4 volumes of ACN (87%) with formic acid (0.125%) followed by centrifugation (10,000 rpm×5 min). Supernatants were injected in UPLC/MS. Peak area corresponding to TH1902 was calculated and compared to time 0.

Q: For `CC(=O)O[C@@]12CO[C@@H]1C[C@H](O)[C@@]1(C)C(=O)[C@H](O)C3=C(C)[C@@H](OC(=O)[C@H](O)[C@@H](NC(=O)OC(C)(C)C)c4ccccc4)C[C@@](O)([C@@H](OC(=O)c4ccccc4)[C@H]21)C3(C)C` [docetaxel], which IC50 ([1]; Homo sapiens) is on record?
A: Its IC50 is 0.56 ± 0.19 nM.

Q: What about the neutrophil counts [2] of the same compound?
A: Its neutrophil counts is “sharp drop in neutrophil levels”.

Q: What about the “tumor volumes / tumor growth up to Day 24” value ([3]; 8.75 mg/kg/week TH1902, docetaxel at ¼ MTD, vs vehicle, FIG. 16) of the same compound?
A: The value was “grow slightly faster than those in the control animals”.

Q: And the “ΔT/ΔC (%) (at endpoint, Day-24)” value ([3]; 8.75 mg/kg/week of TH1902 (docetaxel 3.75 mg/kg))?
A: Its value is 143%.

Q: What about the “tumor growth / tumor size, low dose” value ([4]; docetaxel 3.75 mg/kg, TH1902 8.75 mg/kg, day 21 and extended) of the same compound?
A: The value was “very similar in size to those treated with vehicle; also recorded: indistinguishable”.

Q: And the “tumor growth / tumor size, high dose” value ([4]; docetaxel 15 mg/kg (MTD), TH1902 35 mg/kg, day 21)?
A: Its value is “Decreased tumor growth; also recorded: significant decreases in tumor size”.

Q: For `CCCC[C@H](NC(=O)[C@H](CC(N)=O)NC(=O)[C@H](CCCNC(=N)N)NC(=O)[C@@H](NC(=O)CNC(=O)[C@H](C)NC(=O)[C@H](CCCCNC(=O)CCC(=O)O[C@@H](C(=O)O[C@H]1C[C@@]2(O)[C@@H](OC(=O)c3ccccc3)[C@@H]3[C@]4(OC(C)=O)CO[C@@H]4C[C@H](O)[C@@]3(C)C(=O)[C@H](O)C(=C1C)C2(C)C)[C@@H](NC(=O)OC(C)(C)C)c1ccccc1)NC(=O)[C@H](C)NC(=O)[C@H](CCCNC(=N)N)NC(=O)[C@@H](NC(=O)CNC(C)=O)C(C)C)C(C)C)C(=O)N[C@@H](Cc1ccccc1)C(=O)N[C@@H](CCCCNC(=O)CCC(=O)O[C@@H](C(=O)O[C@H]1C[C@@]2(O)[C@@H](OC(=O)c3ccccc3)[C@@H]3[C@]4(OC(C)=O)CO[C@@H]4C[C@H](O)[C@@]3(C)C(=O)[C@H](O)C(=C1C)C2(C)C)[C@@H](NC(=O)OC(C)(C)C)c1ccccc1)C(=O)N[C@@H](CO)C(=O)N[C@@H](CCC(=O)O)C(=O)N[C@@H](CO)C(=O)N[C@@H](Cc1ccc(O)cc1)C(=O)O` [TH1902, Acetyl-GVRAK(docetaxel)AGVRN(Nle)FK(docetaxel)SESY] (Ac-GVRAK(X1)AGVRN[Nle]FK(X1)SESY-OH), which IC50 [1] is on record?
A: Its IC50 is 0.19 ± 0.09 nM.

Q: And the weight loss ([2]; TH1902 at equivalent dose of docetaxel 15 mg/kg/week)?
A: The weight loss was “no weight loss was observed”.

Q: And the neutrophil counts [2]?
A: The neutrophil counts was “no apparent change in the neutrophil counts”.

Q: And the half-life ([5]; TH1902 formulated with solubilizing agents (DMSO/Solutol HS15/Tween-80/EtOH/Sol. Ac. Ac./D5W/water 5/6/2.5/0.75/0.005/69/16.75))?
A: The half-life was 30 h.

Q: What about the half-life ([5]; TH1902 solubilized in DMSO) of the same compound?
A: Its half-life is 5 h.
